# Biological target: T1, Dual specificity protein phosphatase 6 (Rattus norvegicus, UniProt Q64346)
# T1 sequence (Q64346 whole entry): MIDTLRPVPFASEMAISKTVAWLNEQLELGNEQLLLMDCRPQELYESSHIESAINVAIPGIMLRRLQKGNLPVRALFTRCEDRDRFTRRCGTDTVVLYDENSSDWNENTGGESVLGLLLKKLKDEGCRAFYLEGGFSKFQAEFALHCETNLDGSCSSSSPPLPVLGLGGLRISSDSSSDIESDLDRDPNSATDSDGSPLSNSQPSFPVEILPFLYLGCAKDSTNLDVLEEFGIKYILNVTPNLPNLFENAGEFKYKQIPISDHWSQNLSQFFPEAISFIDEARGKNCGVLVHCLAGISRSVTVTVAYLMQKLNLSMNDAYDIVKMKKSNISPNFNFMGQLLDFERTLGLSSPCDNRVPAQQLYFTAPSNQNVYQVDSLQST
# Assay: MKP-3 phosphatase inhibitors, dose response, biochemical, probe assessment (AID 673)
row,IC50 [µM],SMILES
1,> 50,O=C(Nc1ccc2nc(-c3ccco3)c(-c3ccco3)nc2c1)N1CCCCCC1
2,> 50,Cc1ccc2c(c1C)NC(C(=O)O)C1CC=CC21 (stereo not drawn)
3,> 50,O=C(O)C1Nc2c(O)cccc2C2C=CCC12 (stereo not drawn)
4,> 50,[O-]/[N+](=C\c1ccncc1)c1ccccc1
5,> 50,COc1cccc2c(C)c(C(=O)O)[nH]c12
6,> 50,[O-]/[N+](=C\c1ccc(OC(F)F)cc1)c1ccccc1 [1-[4-(difluoromethoxy)phenyl]-N-phenylmethanimine oxide]
7,19.8,"O=C1Cc2ccccc2C(=O)N1CCc1ccccc1 [2-(2-phenylethyl)-4H-isoquinoline-1,3-dione]"
8,2.74,"N#Cc1c(N)sc(=S)c2c1CCN(Cc1ccccc1)C2 [3-Amino-7-benzyl-1-thioxo-5,6,7,8-tetrahydro-1H-thiopyrano[3,4-c]pyridine-4-carbonitrile]"
9,12.1,Cc1ccccc1Nc1cc2ccccc2c(O)n1 [3-[(2-methylphenyl)amino]-2H-isoquinolin-1-one]
10,> 50,"COc1ccc(Br)cc1C=c1sc2nc(-c3ccco3)nn2c1=O [5-[(5-bromanyl-2-methoxy-phenyl)methylidene]-2-(furan-2-yl)-[1,3]thiazolo[3,2-b][1,2,4]triazol-6-one]"
11,> 50,CCOC(=O)C(C(=O)OCC)c1cc(Br)c2noc3c2c1C(=O)c1ccccc1-3 [MLS000038842]
12,12.6,Oc1nc(Nc2ccccc2)cc2ccccc12 [MLS000043701]
13,> 50,O=C1C=Cc2ccccc2/C1=C/NC12CN3CCN(CN(C3)C1)C2 [MLS000071484]
14,19.8,Cc1c(N=c2c(=O)c3ccccc3c2=O)c(=O)n(-c2ccccc2)n1C [MLS000105950]
15,> 50,CCOc1ccc2noc3c2c1C(=O)c1ccccc1-3 [MLS000106837]
16,> 50,COc1ccc2noc3c2c1C(=O)c1ccccc1-3 [MLS000106874]
17,> 50,c1ccc(CSc2nnc(-c3ccco3)c(-c3ccco3)n2)cc1 [MLS-0029114.0001]
18,> 50,Cc1ccc2c(c1)C1C=CCC1C(C(=O)O)N2 (stereo not drawn) [MLS-0067149.0001]
19,48.7,"O=C(NC1(O)C(=O)c2ccccc2C1=O)c1ccccc1 [N-(2-hydroxy-1,3-dioxo-2-indenyl)benzamide]"
20,> 50,COc1cccc2c1NC(C(=O)O)C1CC=CC21 (stereo not drawn) [SMR000009698]
21,> 50,O=C(OC1CCCCC1)c1ccc2c(c1)C1C=CCC1C(C(=O)O)N2 (stereo not drawn) [SMR000019385]
22,3.71,N#Cc1c(N2CCCC2)nc(N)c2c(N)nc(N3CCCC3)cc12 [SMR000061605]
23,> 50,Nc1cccc2cnccc12 [isoquinolin-5-amine]

row,SMILES,IC50 [µM]
1,Cn1ncnc2c(=O)n(C)c(=O)nc1-2,0.433
2,"O=C1C=Cc2ccccc2C1=O [1,2-dihydronaphthalene-1,2-dione]",> 50
3,"CCn1nc(-c2ccccc2)nc2c(=O)n(C)c(=O)nc1-2 [1-Ethyl-6-methyl-3-phenyl-1H-pyrimido[5,4-e][1,2,4]triazine-5,7-dione]",0.615
4,"CCn1nc(-c2cccs2)nc2c(=O)n(C)c(=O)nc1-2 [1-ethyl-6-methyl-3-thiophen-2-yl-pyrimido[5,4-e][1,2,4]triazine-5,7-dione]",0.629
5,"CC(=O)Nc1cc(OC(C)=O)c2nonc2c1OC(C)=O [Acetic acid 7-acetoxy-5-acetylamino-benzo[1,2,5]oxadiazol-4-yl ester]",> 50
